The term Ki denotes the dissociation constant of the complex between target and ligand, obtained from inhibition or displacement. A word on the IC50: it is the concentration needed to halve the response being measured. Broadly, the inhibition is the change of the read-out against control, counted positive when it falls. A lower inhibition goes with a response near the control.

The first test addresses Cyclin-dependent kinase 2 (Homo sapiens, UniProt P24941). The test can be described thus: Binding affinity to CDK2 (unknown origin).
The compound `CC(C)(C)n1nc(-c2cccc(NC(=O)/C(C#N)=C/c3ccc(F)cc3)c2)c2c(=O)[nH]cnc21` displayed a Ki of 2.87 µM. In turn, `CC(C)(C)n1nc(-c2cccc(NC(=O)/C(C#N)=C/C=C/c3ccccc3)c2)c2c(=O)[nH]cnc21` came in with a Ki of 6.25 µM. Same read-out and setting: for `CC(C)(C)n1nc(-c2cccc(NC(=O)/C(C#N)=C/c3ccccc3Br)c2)c2c(=O)[nH]cnc21` the value was 1.31 µM; for `CC(C)(C)n1nc(-c2cccc(NC(=O)/C(C#N)=C/c3ccccc3)c2)c2c(=O)[nH]cnc21`, 2.2 µM; for `CCCC/C=C(\C#N)C(=O)Nc1cccc(-c2nn(C(C)(C)C)c3nc[nH]c(=O)c23)c1`, 11.6 µM. As for `CC(C)(C)n1nc(-c2cccc(NC(=O)/C(C#N)=C/c3cccc([N+](=O)[O-])c3)c2)c2c(=O)[nH]cnc21`, the affinity corresponds to a Ki of 2.46 µM. Still for that read-out and setting: for `CC(C)(C)n1nc(-c2cccc(NC(=O)/C(C#N)=C/c3ccc([N+](=O)[O-])cc3)c2)c2c(=O)[nH]cnc21` the value was 1.95 µM. In turn, `CC(C)(C)/C=C(\C#N)C(=O)Nc1cccc(-c2nn(C(C)(C)C)c3nc[nH]c(=O)c23)c1` had a Ki of 2.57 µM. The compound `CC(C)(C)n1nc(-c2cccc(NC(=O)/C(C#N)=C/c3ccc(O)cc3)c2)c2c(=O)[nH]cnc21` yielded a Ki of 0.52 µM. Still for that read-out and setting: for `CC(C)(C)n1nc(-c2cccc(NC(=O)/C(C#N)=C/c3cccc(C(F)(F)F)c3)c2)c2c(=O)[nH]cnc21` the value was 5.59 µM; for `CC(C)(C)n1nc(-c2cccc(NC(=O)/C(C#N)=C/c3ccccc3[N+](=O)[O-])c2)c2c(=O)[nH]cnc21`, 12.3 µM. Still for that read-out and setting: for `CC(C)(C)n1nc(-c2cccc(NC(=O)/C(C#N)=C/c3cc([N+](=O)[O-])cc([N+](=O)[O-])c3)c2)c2c(=O)[nH]cnc21` the value was 1.64 µM; for `CC(C)(C)n1nc(-c2cccc(NC(=O)/C(C#N)=C/c3cccc(Br)c3)c2)c2c(=O)[nH]cnc21`, 14.7 µM. Same read-out and setting: for `CC(C)(C)n1nc(-c2cccc(NC(=O)/C(C#N)=C/c3ccc(Br)cc3)c2)c2c(=O)[nH]cnc21` the value was 3.63 µM; for `COc1ccc(/C=C(\C#N)C(=O)Nc2cccc(-c3nn(C(C)(C)C)c4nc[nH]c(=O)c34)c2)cc1`, 9.7 µM; for `CC(C)(C)n1nc(-c2cccc(NC(=O)/C(C#N)=C/c3cccc(Cl)c3)c2)c2c(=O)[nH]cnc21`, 3.1 µM. In the case of `CC(C)(C)n1nc(-c2cccc(NC(=O)/C(C#N)=C/c3ccccc3O)c2)c2c(=O)[nH]cnc21`, the Ki turned out to be 0.35 µM.

In turn, `CC(C)(C)n1nc(-c2cccc(NC(=O)/C(C#N)=C/c3ccc(C(=O)O)cc3)c2)c2c(=O)[nH]cnc21` displayed a Ki of 1.4 µM. Same read-out and setting: for `Cc1cc(NS(=O)(=O)c2ccc(Nc3n[nH]c4nc[nH]c(=O)c34)cc2)no1` the value was 4.84 µM.

The test system of the next test is MCF7. In words: Antiproliferative activity against human MCF7 cells by CCK-8 assay. Format: functional, cell-based. On the technique in general: Tetrazolium dyes change colour on reduction, which living cells bring about.
`CC(C)(C)n1nc(-c2cccc(NC(=O)/C(C#N)=C/c3ccccc3)c2)c2c(=O)[nH]cnc21`: the IC50 was 21.7 µM.

Compound `COc1cc([C@@H]2c3cc4c(cc3[C@@H](O[C@@H]3O[C@@H]5CO[C@@H](C)O[C@H]5[C@H](O)[C@H]3O)[C@H]3COC(=O)[C@H]23)OCO4)cc(OC)c1O` [ETOPOSIDE] registered a half-inhibitory concentration (IC50) of 18.8 µM.

The test system of another test is MCF7. The test can be described thus: Antiproliferative activity against human MCF7 cells at 4 uM by CCK-8 assay. The class given is functional.
For the compound `CC(C)(C)n1nc(-c2cccc(NC(=O)/C(C#N)=C/c3ccccc3)c2)c2c(=O)[nH]cnc21`, the inhibition at 4 µM was determined as 30%.

The record behind these values is ChEMBL document CHEMBL5126571, “Development of pyrazolo[3,4-d]pyrimidin-4-one scaffold as novel CDK2 inhibitors: Design, synthesis, and biological evaluation” (Bioorg Med Chem Lett, 2022).
